# Literature values in patent US20100135908A1, “Delivery devices for modulating inflammation” (Searete LLC, a limited liability corporation of the state …, priority 2008, published 2010).
# What was measured:
# [1] = test system: Src family kinases (Src, Lck, Yes, Fyn); settings: at nanomolar concentrations
# [2] = mice
# [3] = single agent, 400 mg infused over one hour
# proteasome = settings: cultured breast cancer cells; disulfiram bound to copper
compound,measurement,setting,value
"Cc1nc(Nc2ncc(C(=O)Nc3c(C)cccc3Cl)s2)cc(N2CCN(CCO)CC2)n1.O [dasatinib, N-(2-chloro-6-methylphenyl)-2-[[6-[4-(2-hydroxyethyl)-1-piperazinyl]-2-methyl-4-pyrimidinyl]amino]-5-thiazolecarboxamide, monohydrate]","inhibition of Src family kinases (Src, Lck, Yes, Fyn)",[1],inhibits
"Cl.Cl.Nc1ccccc1Oc1ccc2c(N)nsc2c1 [Example M62812, 3-amino-6-(2-aminophenoxy)-1,2-benzisothiazole dihydrochloride]",prevention of lethal septic shock,[2],prevents lethal septic shock
CCN(CC)CCCC(C)Nc1ccnc2cc(Cl)ccc12 (centres unmarked) [chloroquine],inhibition of CpG-induced Src family kinase activation or its dependent cellular responses,Src family kinase,does not inhibit
"CCN(CC)CCCC(C)Nc1ccnc2cc(Cl)ccc12.O=P(O)(O)O.O=P(O)(O)O (centres unmarked) [chloroquine phosphate, 7-chloro-4-[[4-(diethylamino)-1-methylbutyl]amino]quinoline phosphate (1:2)]",complications of intravenous infusion,[3],without complication
"CCN(CC)C(=S)SSC(=S)N(CC)CC [disulfiram, 1-(diethylthiocarbamoyldisulfanyl)-N,N-diethyl-methanethioamide]",proteasomal activity,proteasome,inhibits proteasomal activity
